# Assays:
# ARE = assay: ARE(GSTYa)-luciferase reporter in PC12h cells; assay type: cell-based
# Description: (1) pGL3-GSTYa ARE core-luciferase vector. […] The dsDNA thus obtained was inserted into the Mlu l and Bglll sites of the pGL3-promoter vector (Promega Co., Madison, Wis.).
# Transient transfection and measurement of luciferase activity. PC12h cells or cerebrocortical cultures (E17, DIV21) were incubated for 5 h in EBSS containing 1 μg of a plasmid DNA plus Lipofectamine 2000 (Invitrogen, Carlsbad, Calif.). Transfection efficiency was normalized to β-galactosidase activity expressed by co-transfection with pSV-β-gal (Promega). For reporter gene assays, cells were transfected with 1 μg of the reporter construct [ARE(GSTYa)-luciferase] and 0.2 μg pSV-β-gal for 1 hour. […] Firefly luciferase activity and β-galactosidase activity in cell lysates were measured using a Luciferase System and β-Galactosidase Enzyme Assay System, respectively (Promega, Madison, Wis.).
# Next, we examined the involvement of the Keap1/Nrf2 pathway more precisely by studying activation of the ARE. This transcription element responds to the Keap1/Nrf2 pathway; we monitored activation of the ARE by performing luciferase reporter gene assays using PC12h cells transfected with ARE(GSTYa)-luciferase (Alam et al., J. Biol. Chem. 274:26071-26077, 1999) in the presence or absence of an Nrf2 dominant-negative (DN) or Keap1 expression vector.
# [1] = tested on: phase 2 genes (GCL-L, GCL-H, HO-1, NQO1); assay: Phase 2 gene induction in PC12h cells (RT-PCR); assay type: cell-based; settings: 10 μM CA, 6-24 h
# Description: RT-PCR. In order to examine phase 2 gene induction by CA in PC12h cells and brain lysates, RT-PCR of total RNA from cortical cultures was performed using the following primer pairs (Hosoya et al., J. Bioi. Chern. 29:27244-27250, 2005; Kobayashi et al., Mol. Cell. Biol. 26:221-229, 2006): CypA (89 bp), 5′-ACAGGTCCTGGCATCTTGTC-3′ (SEQ ID NO: 18)(sense) and 5′-[…] -3′ (SEQ ID NO: 19)(antisense); H0-1 (284 bp), 5′-CAGTCGCCTCCAGAGTTTCC -3′ (SEQ ID NO: 20)(sense) and 5′- TACAAGGAGGCCATCACCAGC-3′ (SEQ ID NO: 21)(antisense); GCL-M (280 bp), 5′- CTGCTAAACTGTTCATTGTAGG-3′ (SEQ ID NO: 22)(sense) and 5′- CTA TTG GGT TIT ACC TGT G-3′ (SEQ ID NO: 23)(antisense); GCL-C (213 bp), 5′- GTC TIC AGG TGA ACA TIC CAA GC-3′ (SEQ ID NO: 24)(sense) and 5′- TGTTCTTCAGGGGCTCCAGTC-3′ (SEQ 10 NO: 25)(antisense); and NQO1 (212 bp), 5′- GTG TAC AGC ATI GGC CAC AC-3′ (SEQ 10 NO: 26)(sense) and 5′AAATGATGGCCCACAGAAAG-3′ (SEQ ID NO: 27)(antisense).
# Phase 2 enzymes represent an important effector activated by electrophilic-induction of the Keap1/Nrf2 pathway. In order to detect induction of the phase 2 enzymes γ-GCL light chain (GCL-L), γ-GCL heavy chain (GCL-H), HO-1, and NQO1, we performed RT-PCR using mRNA of PC12h cells pretreated with 10 μM CA. The cyclophilin A (CYPA) gene was used as an internal positive control.
# neural cells = assay: Neuroprotection and toxicity of CA in vitro (summary statements); assay type: cell-based
# ARE core element = ARE core element luciferase reporter (pAREluc) in HT22 cells; assay type: cell-based
# Description: Cell cultures, transfection, and glutathione (GSH) measurement. […] Transfection was performed with Lipofectamine 2000 (Invitrogen). In the reporter gene assays, firefly luciferase activity in cell lysates was measured with a luminometer (Promega). Total GSH (reduced and oxidized) was determined as described (Lee et al., Biochem. Biophys. Res. Commun. 280:286-292, 2001).
# The E1 and E2 enhancer sites in the H0-1 promoter each contain an ARE. […] Biol. 24:36-45, 2004; Gong et al., Antioxid. Redox Signal. 4:249-257, 2002). Because NEPP compounds have an electrophilic carbon at position #11 and can bind cysteine residues of cellular proteins, we studied this pathway of ARE activation. To provide direct evidence that NEPP11 could activate the H0-1 enhancer through an ARE, we studied transcriptional activation of a wild-type ARE core element (pAREluc) and a mutated form (pGC-AREIuc) (Lee et al., Biochem, Biophys. Res. Commun. 280:286-292, 2001). cDNA constructs represented wild-type
# (Kraft et al., J. Neurosci. 24:1101-1112, 2004).
# HO-1 protein = assay: Induction of HO-1 protein in primary cortical cultures; assay type: cell-based, rat
# Description: Immunoprecipitation, western blots, and immunofluorescence. These assays were performed as described (Gu et al., Science 297:1186-1190, 2002) by using the following antibodies: anti-HO-1 (SPA895, 1:1000, Santa Cruz Biotechnology), anti-Keap1 (1:100, Santa Cruz Biotechnology), or anti-actin (1:5,000, Oncogene Research Products, San Diego).
# We reasoned that if, unlike other electrophiles (Kraft et al., J. Neurosci. 24:1101-1112, 2004), NEPPs accumulate predominantly in neurons, then HO-1 might be induced preferentially in this cell type. To check this possibility, we performed immunofluorescence studies with anti-HO-1 antibody after exposure to a potent NEPP compound. Cortical cultures (E17 and DIV14-21) treated with vehicle or NEPP11 (0.7 μM) were stained with anti-MAP-2 and anti-HO-1 and with Hoechst dye. In control cultures, non-neuronal cells expressed relatively more HO-1 at baseline than did neurons. […] To examine induction of HO-1 protein after exposure to NEPP, lysates (10 μg per lane) of primary cortical cultures treated with vehicle or NEPP11 for 24 h were probed with anti-HO-1 or anti-β-actin in immunoblots. […] The fold induction of HO-1 by NEPP11 was 2.2±0.25 (for 0.5 μM NEPP11) and 3.5±0.25 (for 1.0 μM NEPP11 as assessed by densitometry.
# Cell Cultures, Transfection, and Glutathione (GSH) Measurement.
SMILES,"ARE activation with co-transfection of Nrf2-DN or Keap1 (ARE; PC12h cells, CA)","stimulation of ARE-based transcription (ARE; PC12h cells, CA 10 μM) [fold]","ARE activation relative to sulforaphane (ARE; equimolar basis, 20 h)",induction of phase 2 genes [1],toxicity in vitro relative to NEPP11 (neural cells),toxicity to neural cells (neural cells; 100 μM CA),neuroprotective concentration (neural cells; as little as),mutant ARE (pGC-AREluc) transcriptional activity (ARE core element),wild-type ARE (pAREluc) transcriptional activity (ARE core element; dose-dependent),"fold induction of HO-1 (densitometry) (HO-1 protein; 0.5 μM NEPP11, 24 h) [fold]","fold induction of HO-1 (densitometry) (HO-1 protein; 1.0 μM NEPP11, 24 h) [fold]","HO-1 immunofluorescence (HO-1 protein; NEPP11 0.7 μM, E17 DIV14-21)"
"CC(C)c1cc2c(c(O)c1O)[C@@]1(C(=O)O)CCCC(C)(C)[C@@H]1CC2 [CA, carnosic acid]",significantly repressed,> 10,to a much greater extent than sulforaphane,All of the phase 2 genes were induced,less toxic than NEPP11,not toxic,1-3,,,,,
COC(=O)CCCCC/C=C1/C(=O)C=C[C@H]1CCCCCCc1ccc(C)cc1 [NEPP11],,,,,,,,unaffected,up to seven-fold,2.2±0.25,3.5±0.25,increased mainly in neurons
